{
  "source": "patent US20250186470A1",
  "about": "“Compositions and Methods Using Lactulose for Treating Disease” (THE UNIVERSITY OF CHICAGO, priority 2023, published 2025)",
  "key": {"Bifidobacteria": {"tested_on": "Bifidobacteria", "assay": "Fecal shotgun metagenomics of hospitalized liver disease patients stratified by lactulose exposure: Bifidobacteria abundance", "format": "in vivo, human", "conditions": "for Regression estimate, association with Bifidobacteria abundance: Table S1, factors lactulose, PPI, stool consistency, antibiotics"}, "B. longum [1]": {"tested_on": "B. longum", "assay": "B. longum growth, pH and SCFA in BHIS with 50 mM lactulose or sucrose", "format": "cell-based, Bifidobacterium longum", "source_text": "FIGS. 4A-4D: Lactulose-mediated Bifidobacteria expansion is associated with exclusion of antibiotic-resistant Enterococcus species. (A) Relative abundance of potentially pathogenic taxa Enterococcus and Proteobacteria were plotted based on lactulose exposure (no lactulose, left; lactulose, right) and relative abundance of Bifidobacteria (<10%, blue; ≥10%, red). Each point represents a single sample with the following sample sizes: total n=262; no lactulose, <10%, n=79; no lactulose, ≥10%, n=24; lactulose, <10%, n=87; lactulose, ≥10%, n=72. Median and interquartile range are indicated by the horizontal line and box, respectively. The lower vertical line depicts Q1-1.5*IQR and the upper vertical line depicts Q3+1.5*IQR. Statistical comparisons between individual groups were analyzed using a two-tailed Wilcoxon rank sum test. P-values are adjusted for multiple comparisons using the Benjamini-Hochberg procedure and represented as follows: *, p<0.05; **, p<0.01; ***, p<0.001; ****, p<0.0001. (B) A human-derived B. longum species was grown in BHIS media (blue) or BHIS supplemented with 50 mM lactulose (red) or 50 mM sucrose (green), and growth curves (OD600 over time) are shown. […] This graph is representative of three independent experiments, also done in triplicate, all with consistent results. (C) Schematic of experimental design for B. longum (purple bacilli) and VRE (green cocci) co-culture. B. longum and VRE were grown to steady state and diluted to low density (OD600=0.05) prior to inoculation in either BHIS or BHIS supplemented with 50 mM lactulose. Cultures were inoculated with both bacteria simultaneously (top) or B. longum was given either a 24-hour or 48-hour lead time prior to VRE inoculation (bottom). (D) After 24-hours of co-culture, serial dilutions of three replicates were plated for VRE c.f.u. counts. Each replicate is plotted as an individual point, and the median is represented by the horizontal line. […]\n(C and D) Supernatant BA quantified after 24 h of B. longum growth in media containing 10 μg/ml conjugated primary BA ((C) TCA or (D) GCA). n=4 all conditions. […]"}, "B. longum [2]": {"tested_on": "B. longum", "assay": "Ex-germ-free mice colonized with 8-11 strain consortia containing B. longum +/- lactulose", "format": "in vivo, mouse", "excerpt": "(A) Schematic indicating timing of consortia gavage, lactulose administration (20 g/L in drinking water), and stool collection in ex-germ-free mice. […] (B) 16S metagenomics from stool samples without (left facet within each consortia) and with (right facet within each consortia) lactulose exposure is shown as relative abundance. Concentrations of acetate and taurocholic acid are shown in units of mM below each paired sample. (C) Bifidobacteria relative abundance, acetate concentration (mM), and taurocholic acid concentrations (μg/ml) were measured and compared between mice that were and were not exposed to lactulose. […] DNA was extracted using the QIAamp PowerFecal Pro DNA kit (Qiagen). Prior to extraction, samples were subjected to mechanical disruption using a bead beating method. Briefly, samples were suspended in a bead tube (Qiagen) along with lysis buffer and loaded on a bead mill homogenizer (Fisherbrand). Samples were then centrifuged, and supernatant was resuspended in a reagent that effectively removed inhibitors. DNA was then purified routinely using a spin column filter membrane and quantified using Qubit. […] Short chain fatty acids (SCFA, i.e. butyrate, acetate, propionate, and succinate) were derivatized with pentafluorobenzyl bromide (PFBBr) and analyzed via negative ion collision induced-gas chromatography-mass spectrometry ([-]CI-GC-MS, Agilent 8890) 92. Eight bile acids (BA, i.e. primary: cholic acid; conjugated primary: glycocholic acid, taurocholic acid; secondary: deoxycholic acid, lithocholic acid [LCA], isodeoxycholic acid; modified secondary: alloisolithocholic acid [alloisoLCA] and 3-oxolithocholic acid [3-oxoLCA]) were quantified (μg/mL) by negative mode liquid chromatography-electrospray ionization-quadrupole time-of-flight-MS ([-]LC-ESI-QTOF-MS, Agilent 6546). […] For germ-free studies, 6-18 week-old male and female C57BL/6 mice were used. Mice were initially obtained from The Jackson Laboratory and subsequently bred and raised in a germ-free isolator. […]"}, "[3]": {"conditions": "lactulose treated patients, one sample per patient"}},
  "data": [
    {"smiles": "OC[C@H]1O[C@@H](O[C@@H]2[C@@H](CO)OC(O)(CO)[C@H]2O)[C@H](O)[C@@H](O)[C@H]1O", "note": "(mixture of isomers) [Lactulose, lactulose]", "values": [
      {"measurement": "Regression estimate, association with Bifidobacteria abundance", "setting": "Bifidobacteria", "value": 0.17},
      {"measurement": "Regression estimate, association with Bifidobacteria abundance", "setting": "Bifidobacteria; listed as lactulose", "value": "positively associates"},
      {"measurement": "Bifidobacteria abundance, mean", "setting": "Bifidobacteria; [3]", "value": 22.2, "unit": "%"},
      {"measurement": "Bifidobacteria abundance, range", "setting": "Bifidobacteria; [3]", "value": "0.0-94.7%"},
      {"measurement": "Fecal samples having ≥10% Bifidobacteria abundance", "setting": "Bifidobacteria; lactulose within 7 days prior to sample collection, one sample per patient", "value": 45.2, "unit": "%"},
      {"measurement": "Bifidobacteria density", "setting": "Bifidobacteria; patients without antibiotics in the preceding 7 days, lactulose-treated vs not", "value": "significantly increased"},
      {"measurement": "Acetate in B. longum culture", "setting": "B. longum [1]; 50 mM lactulose, 24 h", "value": "acetate production"},
      {"measurement": "Media pH after B. longum growth", "setting": "B. longum [1]; 50 mM lactulose, 24 h", "value": "media acidification"},
      {"measurement": "B. longum culture growth (OD600)", "setting": "B. longum [1]; BHIS supplemented with 50 mM sugar", "value": "augmented"},
      {"measurement": "Relative abundance of B. longum", "setting": "B. longum [2]; all consortia (CON.1-3), 20 g/L lactulose in drinking water", "value": "increased"},
      {"measurement": "Fecal taurocholic acid concentrations", "setting": "B. longum [2]; all three consortia, 20 g/L lactulose", "value": "reduced"},
      {"measurement": "Fecal acetate concentrations", "setting": "B. longum [2]; consortia, 20 g/L lactulose", "value": "only modestly increased"}
    ]}
  ]
}
